Source: patent US20100330029A1, “Cancer Treatments with Radiation and Immunocytokines” (Merck Patent GmbH, priority 2008, published 2010)

Tested on: Lewis lung carcinoma (LLC)
Experiment: tumor growth assay, Lewis lung carcinoma model
Assay type: in vivo, mice
Conditions: LLC-3, single-arm groups: cisplatin plus 3.6 Gy/d without EMD521873, or EMD521873 alone
Description: LL/2 (LLC) cells, a murine Lewis lung carcinoma cell line, were maintained in DMEM, supplemented with 10% heat-inactivated fetal bovine serum, L-glutamine, penicillin/streptomycin (Life Technologies, Inc.) at 37° C. and 7% CO2. LLC cells were implanted in female C57BL/6 mice.
For the tumor growth assay, cells growing exponentially in culture were injected as a single cell suspension in 100 μl of PBS intramuscularly into the upper legs of the mice. In experiments using a dual tumor model, cells were also implanted in the flanks of the mice. […] In Experiment LLC-7, tumors were implanted in the flank until established. Mice were treated on days 0 to 9, then, on day 12, tumors were excised using survival surgery. Thereafter, animal survival was monitored. In Experiment LLC-14, tumors were implanted subcutaneously in the flank until established. Mice were treated on days 0 to 6 and day 17, and tumor size was measured twice weekly for the duration of the study.
Tumors were measured with calipers in three dimensions for the duration of the experiment. Tumor volumes were calculated using the equation:
Volume=4/3π(L/2×W/2×H/2) • where L=length, W=width and H=height of the tumor
For local irradiation, mice were anesthetized by intraperitoneal injection of a solution of 2% tribromoethanol/3% xylazine. The amount injected was 0.02 ml/gram of the recipient's weight. Mice were restrained so that only their tumor-bearing leg was exposed to radiation, while the reminder of the mouse was shielded. Tumors were irradiated with ^137Cs gamma radiation at a dose rate of 1 Gy/min using a Gammacell® 40 Exactor (Nordion, Ottawa, ON).
Data from the subcutaneous tumor growth assay are presented in graphic form depicting average and standard deviations (sd) of tumor volumes or weights during and after dosing. Animal weight changes were determined by subtracting the animal weight at each time point from the initial body weight, on day 0, then dividing by the initial body weight and multiplying by 100. Therefore a value of 0 indicates no weight change.
Student's 2-tailed t test or Mann-Whitney Rank Sum test, as appropriate, was performed on the individual tumor volumes or animal weights, to determine significant differences between treatment groups.

N.N.[Cl][Pt][Cl] [cisplatin, cis-diammineplatinum (II) dichloride, reference compound]
T/C (day 19): 0.32 | complete responses: 0/6
